In US20110178062A1, “INDOLE AND BENZOTHIOPHENE COMPOUNDS AS MODULATORS OF THE HISTAMINE H3 RECEPTOR” (priority 2007, published 2011):

Key:
human H3 receptor = molecular target: T1, human H3 receptor (Homo sapiens, UniProt Q9Y5N1); assay: Cyclic AMP Accumulation, SK-N-MC reporter cells (human H3); type: cell-based; details: SK-N-MC cells expressing reporter construct and human H3 receptor; read-out: Human pA2 (converted)
T1 construct: expressed in transfected cells; host or cells: SK-N-MC cells
Source text: (§1) Sublines of SK-N-MC cells were created that expressed a reporter construct and either the human or rat H3 receptor. The pA2 values were obtained as described by Barbier et al. (2004). Data for compounds tested in these assays are presented in Table 3, as an average of the results obtained (NT=not tested).

[1] = molecular target: T2, cloned human H3 receptors, stably expressed in SK-N-MC cells (Homo sapiens, UniProt Q9Y5N1); assay: H3 Receptor Binding (Human); details: average of the results obtained
T2 construct: expressed in transfected cells; host or cells: SK-N-MC cells
T2 sequence (Q9Y5N1 whole entry): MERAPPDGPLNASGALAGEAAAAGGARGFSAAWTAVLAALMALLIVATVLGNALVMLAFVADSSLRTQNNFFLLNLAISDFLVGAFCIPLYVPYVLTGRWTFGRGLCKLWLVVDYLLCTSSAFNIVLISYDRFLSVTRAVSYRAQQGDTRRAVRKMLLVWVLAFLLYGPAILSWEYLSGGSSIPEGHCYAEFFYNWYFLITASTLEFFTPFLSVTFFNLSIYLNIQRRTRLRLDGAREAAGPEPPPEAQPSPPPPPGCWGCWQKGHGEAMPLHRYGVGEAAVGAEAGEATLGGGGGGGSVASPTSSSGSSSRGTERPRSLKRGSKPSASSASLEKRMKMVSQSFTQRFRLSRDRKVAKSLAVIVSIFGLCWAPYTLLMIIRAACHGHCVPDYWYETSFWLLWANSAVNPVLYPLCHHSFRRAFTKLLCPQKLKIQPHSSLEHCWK
Procedure: Binding of compounds to the cloned human H3 receptors, stably expressed in SK-N-MC cells, was performed as described by Barbier, A. J. et al. (Br. J. Pharmacol. 2004, 143(5), 649-661). Data for compounds tested in this assay are presented in Table 1 as an average of the results obtained.

Rat H3 [2] = molecular target: T3, Rat H3 (Rattus norvegicus, UniProt Q9QYN8); assay: H3 Receptor Binding (Rat), rat brain membranes, N-[3H]-α-methylhistamine; details: rat brain without cerebellum; 0.8 nM N-[3H]-α-methylhistamine; average of results
Procedure: A rat brain without cerebellum (Zivic Laboratories Inc., Pittsburgh, Pa.) was homogenized in 50 mM Tris-HCl/5 mM EDTA and centrifuged at 1,000 rpm for 5 min. The supernatant was removed and recentrifuged at 15,000 rpm for 30 min. Pellets were rehomogenized in 50 mM Tris/5 mM EDTA (pH 7.4). Membranes were incubated with 0.8 nM N—[^3H]-α-methylhistamine plus/minus test compounds for 60 min at 25° C. and harvested by rapid filtration over GF/C glass fiber filters (pretreated with 0.3% polyethylenimine) followed by four washes with buffer. Nonspecific binding was defined in the presence of 100 μM histamine. Inhibitory concentration (responsible for 50% inhibition of maximal effect, IC50) values were determined by a single site curve-fitting program (GraphPad, San Diego, Calif.) and converted to Ki values based on a N—[^3H]-α-methylhistamine dissociation constant (Kd) of 0.8 nM. Data for compounds tested in this assay are presented in Table 2 as an average of the results obtained.
Target sequence in this assay (Q9QYN8 1-397 isoform Q9QYN8-3): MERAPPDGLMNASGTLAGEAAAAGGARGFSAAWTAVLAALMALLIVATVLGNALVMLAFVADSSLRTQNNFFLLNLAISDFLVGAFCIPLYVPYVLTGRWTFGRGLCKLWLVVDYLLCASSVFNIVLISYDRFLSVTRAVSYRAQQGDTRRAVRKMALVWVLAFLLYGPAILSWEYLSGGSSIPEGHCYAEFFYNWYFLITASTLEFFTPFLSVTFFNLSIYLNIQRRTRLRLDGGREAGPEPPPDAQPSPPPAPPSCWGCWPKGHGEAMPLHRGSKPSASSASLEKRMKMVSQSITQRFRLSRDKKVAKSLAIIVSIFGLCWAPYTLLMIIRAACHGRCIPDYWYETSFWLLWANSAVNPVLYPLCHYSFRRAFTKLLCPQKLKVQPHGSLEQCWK

Rat H3 [3] = molecular target: T3, Rat H3; assay: Cyclic AMP Accumulation, SK-N-MC reporter cells (rat H3); type: cell-based; parameters: expressed in transfected cells; host or cells: SK-N-MC cells (subline with reporter construct); details: SK-N-MC cells expressing reporter construct and rat H3 receptor; read-out: Rat pA2 (converted)
Source text: as §1
Target sequence in this assay (Q9QYN8 whole entry): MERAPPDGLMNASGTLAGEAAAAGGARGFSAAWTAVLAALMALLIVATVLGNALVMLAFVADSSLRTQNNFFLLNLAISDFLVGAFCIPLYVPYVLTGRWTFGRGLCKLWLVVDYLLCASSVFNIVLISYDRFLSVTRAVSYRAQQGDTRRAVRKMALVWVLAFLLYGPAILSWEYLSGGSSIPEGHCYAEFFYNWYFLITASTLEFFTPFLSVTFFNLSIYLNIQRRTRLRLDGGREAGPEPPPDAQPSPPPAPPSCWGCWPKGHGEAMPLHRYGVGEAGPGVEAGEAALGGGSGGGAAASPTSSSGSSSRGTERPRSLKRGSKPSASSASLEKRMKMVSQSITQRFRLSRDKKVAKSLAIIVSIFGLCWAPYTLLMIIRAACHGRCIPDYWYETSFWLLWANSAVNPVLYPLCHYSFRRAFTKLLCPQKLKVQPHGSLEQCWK

T1 sequence (Q9Y5N1 whole entry): as the sequence (Q9Y5N1 whole entry) above

CC(C)N1CCN(C(=O)c2ccc3c(CN4CCCC(CO)C4)c[nH]c3c2)CC1 (stereo not drawn) [Example 44, [3-(3-Hydroxymethyl-piperidin-1-ylmethyl)-1H-indol-6-yl]-(4-isopropyl-piperazin-1-yl)-methanone]
Kb (human H3 receptor): 1.07 nM
Ki [1]: 2 nM

O=C(c1cccc2c(CN3CCCCC3)c[nH]c12)N1CCN(C2CCC2)CC1 [Example 23, (4-Cyclobutyl-piperazin-1-yl)-(3-piperidin-1-ylmethyl-1H-indol-7-yl)-methanone]
Kb (human H3 receptor): 0.575 nM
Ki [1]: 2 nM

O=C(c1cccc2c(CN3CCOCC3)c[nH]c12)N1CCN(C2CCC2)CC1 [Example 21, (4-Cyclobutyl-piperazin-1-yl)-(3-morpholin-4-ylmethyl-1H-indol-7-yl)-methanone]
Ki (Rat H3 [2]): 19 nM
Kb (human H3 receptor): 1.1 nM
Ki [1]: 5 nM

CC(C)N1CCCN(C(=O)c2ccc3c(CN4CCOCC4)c[nH]c3c2)CC1 [Example 7, (4-Isopropyl-[1,4]diazepan-1-yl)-(3-morpholin-4-ylmethyl-1H-indol-6-yl)-methanone]
Ki (Rat H3 [2]): 2 nM
Ki [1]: 1 nM
Kb (Rat H3 [3]): 2 nM

O=C(c1ccc2c(CN3CCN(C4CCC4)CC3)c[nH]c2c1)N1CCCCC1 [Example 29, [3-(4-Cyclobutyl-piperazin-1-ylmethyl)-1H-indol-6-yl]-piperidin-1-yl-methanone]
Ki (Rat H3 [2]): 438 nM
Ki [1]: 11 nM

CC(C)N1CCN(C(=O)c2ccc3c(CN4CCOCC4)c[nH]c3c2)CC1 [Example 4, (4-Isopropyl-piperazin-1-yl)-(3-morpholin-4-ylmethyl-1H-indol-6-yl)-methanone]
Ki (Rat H3 [2]): 14 nM
Kb (human H3 receptor): 0.234 nM
Ki [1]: 1 nM

CC(C)N1CCN(C(=O)c2ccc3c(CN4CCCC4)c[nH]c3c2)CC1 [Example 58, (4-Isopropyl-piperazin-1-yl)-(3-pyrrolidin-1-ylmethyl-1H-indol-6-yl)-methanone]
Ki (Rat H3 [2]): 2 nM

CC(C)N1CCN(C(=O)c2cccc3c(CN4CCOCC4)c[nH]c23)CC1 [Example 20, (4-Isopropyl-piperazin-1-yl)-(3-morpholin-4-ylmethyl-1H-indol-7-yl)-methanone]
Kb (human H3 receptor): 8.13 nM
Ki [1]: 10 nM

O=C(c1ccc2c(CN3CCOCC3)c[nH]c2c1)N1CCN(C2CC2)CC1 [Example 5, (4-Cyclopropyl-piperazin-1-yl)-(3-morpholin-4-ylmethyl-1H-indol-6-yl)-methanone]
Ki (Rat H3 [2]): 28 nM
Kb (human H3 receptor): 0.537 nM
Ki [1]: 1 nM

CC(C)N1CCN(C(=O)c2ccc3c(CN4CCCCC4)cn(S(C)(=O)=O)c3c2)CC1 [Example 25, (4-Isopropyl-piperazin-1-yl)-(1-methanesulfonyl-3-piperidin-1-ylmethyl-1H-indol-6-yl)-methanone]
Kb (human H3 receptor): 3.09 nM
Ki [1]: 3 nM

O=C(c1ccc2c(CN3CCOCC3)c[nH]c2c1)N1CCN(C2CCC2)CC1 [Example 6, (4-Cyclobutyl-piperazin-1-yl)-(3-morpholin-4-ylmethyl-1H-indol-6-yl)-methanone]
Kb (human H3 receptor): 0.155 nM
Ki [1]: 1 nM

CC(C)N1CCN(C(=O)c2ccc3c(CN4CCOCC4)cn(C)c3c2)CC1 [Example 1, (4-Isopropyl-piperazin-1-yl)-(1-methyl-3-morpholin-4-ylmethyl-1H-indol-6-yl)-methanone]
Ki (Rat H3 [2]): 98 nM
Kb (human H3 receptor): 3.72 nM
Ki [1]: 2 nM

CC(C)N1CCCN(C(=O)c2ccc3[nH]cc(CN4CCCCC4)c3c2)CC1 [Example 34, (4-Isopropyl-[1,4]diazepan-1-yl)-(3-piperidin-1-ylmethyl-1H-indol-5-yl)-methanone]
Ki (Rat H3 [2]): 133 nM
Ki [1]: 4 nM

CC(C)N1CCN(C(=O)c2ccc3c(CN4CCN(c5ccccc5)CC4)c[nH]c3c2)CC1 [Example 45, (4-Isopropyl-piperazin-1-yl)-[3-(4-phenyl-piperazin-1-ylmethyl)-1H-indol-6-yl]-methanone]
Kb (human H3 receptor): 1.82 nM
Ki [1]: 2 nM

O=C(c1ccc2c(CN3CCN(C4CCCC4)CC3)c[nH]c2c1)N1CCCCCC1 [Example 91, Azepan-1-yl-[3-(4-cyclopentyl-piperazin-1-ylmethyl)-1H-indol-6-yl]-methanone]
Kb (human H3 receptor): 46.8 nM
Ki [1]: 26 nM
Kb (Rat H3 [3]): 67.6 nM

CC(C)N1CCN(C(=O)c2ccc3c(CN4CCC(c5ccccc5)CC4)c[nH]c3c2)CC1 [Example 57, (4-Isopropyl-piperazin-1-yl)-[3-(4-phenyl-piperidin-1-ylmethyl)-1H-indol-6-yl]-methanone]
Kb (human H3 receptor): 1.17 nM
Ki [1]: 1 nM

CC(C)N1CCN(C(=O)c2ccc3scc(CN4CCCCC4)c3c2)CC1 [Example 102, (4-Isopropyl-piperazin-1-yl)-(3-piperidin-1-ylmethyl-benzo[b]thiophen-5-yl)-methanone]
Ki (Rat H3 [2]): 228 nM
Ki [1]: 17 nM

CC(C)N1CCN(C(=O)c2ccc3c(CN4CCN(c5ccccn5)CC4)c[nH]c3c2)CC1 [Example 46, (4-Isopropyl-piperazin-1-yl)-[3-(4-pyridin-2-yl-piperazin-1-ylmethyl)-1H-indol-6-yl]-methanone]
Ki [1]: 3 nM

O=C(c1ccc2c(CN3CCN(C4CCC4)CC3)c[nH]c2c1)N1CCC(c2ccccc2)CC1 [Example 43, [3-(4-Cyclobutyl-piperazine-1-ylmethyl)-1H-indol-6-yl]-(4-phenyl-piperidin-1-yl)-methanone]
Ki [1]: 8 nM

Cn1cc(CN2CCOCC2)c2ccc(C(=O)N3CCN(C4CCC4)CC3)cc21 [Example 3, (4-Cyclobutyl-piperazin-1-yl)-(1-methyl-3-morpholin-4-ylmethyl-1H-indol-6-yl)-methanone]
Kb (human H3 receptor): 0.501 nM
Ki [1]: 1 nM

CC(C)N1CCN(C(=O)c2ccc3c(CN4CCN(c5ccc(-c6ccccc6)cc5)CC4)c[nH]c3c2)CC1 [Example 52, [3-(4-Biphenyl-4-yl-piperazin-1-ylmethyl)-1H-indol-6-yl]-(4-isopropyl-piperazin-1-yl)-methanone]
Ki [1]: 12 nM

CC(C)N1CCCN(Cc2c[nH]c3cc(C(=O)N4CCCCCC4)ccc23)CC1 [Example 95, Azepan-1-yl-[3-(4-isopropyl-[1,4]diazepan-1-ylmethyl)-1H-indol-6-yl]-methanone]
Ki [1]: 42 nM
